Measurements from the kinase profiling compilation of Christmann-Franck et al. (2016).

Columns and labels:
Assay in all cases: radiometric filter-binding kinase assay, Kinase HotSpot
Conditions in all cases: compound 0.5 µM; ATP 10 µM
EPHA4 (human) = EPHA4 (human) (UniProt P54764)
PBK (human) = PBK (human) (UniProt Q96KB5)
PAK6 (human) = PAK6 (human) (UniProt Q9NQU5)
CAMK2A (human) = CAMK2A (human) (UniProt Q9UQM7)
DAPK1 (human) = DAPK1 (human) (UniProt P53355)
CAMK2D (human) = CAMK2D (human) (UniProt Q13557)
INSR (human) = INSR (human) (UniProt P06213)
MAP4K2 (human) = MAP4K2 (human) (UniProt Q12851)
[1] = target: TYK2 JH1 catalytic (human) (UniProt P29597)
ROCK1 (human) = ROCK1 (human) (UniProt Q13464)
MAP3K5 (human) = MAP3K5 (human) (UniProt Q99683)
MAP3K8 (human) = MAP3K8 (human) (UniProt P41279)
LCK (human) = LCK (human) (UniProt P06239)
SRPK2 (human) = SRPK2 (human) (UniProt P78362)
NEK11 (human) = NEK11 (human) (UniProt Q8NG66)
MAPK8 (human) = MAPK8 (human) (UniProt P45983)
BTK (human) = BTK (human) (UniProt Q06187)
PTK2B (human) = PTK2B (human) (UniProt Q14289)
STK33 (human) = STK33 (human) (UniProt Q9BYT3)
SLK (human) = SLK (human) (UniProt Q9H2G2)
DYRK3 (human) = DYRK3 (human) (UniProt O43781)
FER (human) = FER (human) (UniProt P16591)
MAP3K3 (human) = MAP3K3 (human) (UniProt Q99759)
PRKD3 (human) = PRKD3 (human) (UniProt O94806)
ACVR1B (human) = ACVR1B (human) (UniProt P36896)
STK10 (human) = STK10 (human) (UniProt O94804)
CSK (human) = CSK (human) (UniProt P41240)
AXL (human) = AXL (human) (UniProt P30530)
MAP3K14 (human) = MAP3K14 (human) (UniProt Q99558)
TAOK3 (human) = TAOK3 (human) (UniProt Q9H2K8)
CDK6 CCND1 (human) = CDK6 CCND1 (human) (UniProt Q00534+P24385)
PRKD1 (human) = PRKD1 (human) (UniProt Q15139)
CAMK1D (human) = CAMK1D (human) (UniProt Q8IU85)
MAPK11 (human) = MAPK11 (human) (UniProt Q15759)
AURKC (human) = AURKC (human) (UniProt Q9UQB9)
CSNK2A1 (human) = CSNK2A1 (human) (UniProt P68400)
PDGFRB (human) = PDGFRB (human) (UniProt P09619)
AKT3 (human) = AKT3 (human) (UniProt Q9Y243)
CDK2 CCNA2 (human) = CDK2 CCNA2 (human) (UniProt P24941+P20248)
RPS6KA3 KD1 KD2 (human) = RPS6KA3 KD1 KD2 (human) (UniProt P51812)

Chain of DAPK1 (human) (P53355 whole entry, looked up): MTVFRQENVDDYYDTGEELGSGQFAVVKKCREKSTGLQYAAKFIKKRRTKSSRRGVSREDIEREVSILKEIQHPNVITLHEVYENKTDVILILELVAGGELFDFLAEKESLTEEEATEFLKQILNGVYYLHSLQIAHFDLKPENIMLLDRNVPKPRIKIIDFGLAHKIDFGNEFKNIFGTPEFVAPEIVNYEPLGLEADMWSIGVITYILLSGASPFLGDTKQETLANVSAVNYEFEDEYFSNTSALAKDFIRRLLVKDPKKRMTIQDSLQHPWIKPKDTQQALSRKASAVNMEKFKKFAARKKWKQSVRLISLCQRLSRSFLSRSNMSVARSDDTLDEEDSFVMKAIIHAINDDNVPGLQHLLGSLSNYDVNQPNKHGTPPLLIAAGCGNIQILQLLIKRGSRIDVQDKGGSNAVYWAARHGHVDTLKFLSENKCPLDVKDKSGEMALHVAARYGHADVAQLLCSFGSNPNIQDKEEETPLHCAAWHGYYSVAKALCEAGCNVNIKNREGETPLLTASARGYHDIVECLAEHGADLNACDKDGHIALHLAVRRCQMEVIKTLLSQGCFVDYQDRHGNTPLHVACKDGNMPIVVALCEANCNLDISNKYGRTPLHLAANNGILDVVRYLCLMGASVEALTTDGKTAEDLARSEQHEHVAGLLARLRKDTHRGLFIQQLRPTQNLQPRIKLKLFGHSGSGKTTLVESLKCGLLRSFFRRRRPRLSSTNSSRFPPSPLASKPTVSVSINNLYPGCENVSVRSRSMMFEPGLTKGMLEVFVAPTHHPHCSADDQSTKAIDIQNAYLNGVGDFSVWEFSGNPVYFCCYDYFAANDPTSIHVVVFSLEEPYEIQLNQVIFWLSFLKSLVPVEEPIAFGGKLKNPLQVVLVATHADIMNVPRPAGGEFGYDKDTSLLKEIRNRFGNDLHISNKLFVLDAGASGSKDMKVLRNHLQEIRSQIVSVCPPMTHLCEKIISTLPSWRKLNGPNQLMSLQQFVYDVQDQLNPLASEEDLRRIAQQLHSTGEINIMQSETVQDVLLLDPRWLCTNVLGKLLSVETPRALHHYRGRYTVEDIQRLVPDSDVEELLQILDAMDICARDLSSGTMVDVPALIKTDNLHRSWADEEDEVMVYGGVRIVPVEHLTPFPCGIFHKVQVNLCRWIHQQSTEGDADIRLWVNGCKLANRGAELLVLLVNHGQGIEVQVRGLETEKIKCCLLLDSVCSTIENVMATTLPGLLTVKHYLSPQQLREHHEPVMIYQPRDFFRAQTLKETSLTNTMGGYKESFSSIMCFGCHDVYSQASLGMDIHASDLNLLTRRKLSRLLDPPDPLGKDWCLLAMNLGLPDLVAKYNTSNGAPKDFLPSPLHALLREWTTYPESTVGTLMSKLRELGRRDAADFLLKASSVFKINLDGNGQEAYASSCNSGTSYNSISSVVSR
Chain of MAP3K8 (human) (P41279 whole entry, looked up): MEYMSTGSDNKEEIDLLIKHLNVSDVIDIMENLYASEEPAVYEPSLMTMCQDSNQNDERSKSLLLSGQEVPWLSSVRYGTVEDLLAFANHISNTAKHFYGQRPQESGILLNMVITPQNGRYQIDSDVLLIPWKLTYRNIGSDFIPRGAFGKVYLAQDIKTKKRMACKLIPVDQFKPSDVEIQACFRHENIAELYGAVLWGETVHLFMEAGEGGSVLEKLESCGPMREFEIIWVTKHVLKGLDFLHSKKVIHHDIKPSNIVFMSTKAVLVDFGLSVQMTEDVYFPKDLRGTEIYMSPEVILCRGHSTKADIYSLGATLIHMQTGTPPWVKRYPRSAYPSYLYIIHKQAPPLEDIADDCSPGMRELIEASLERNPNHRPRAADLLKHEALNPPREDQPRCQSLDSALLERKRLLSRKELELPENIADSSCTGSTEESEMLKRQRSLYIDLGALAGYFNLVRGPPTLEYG
Chain of STK33 (human) (Q9BYT3 whole entry, looked up): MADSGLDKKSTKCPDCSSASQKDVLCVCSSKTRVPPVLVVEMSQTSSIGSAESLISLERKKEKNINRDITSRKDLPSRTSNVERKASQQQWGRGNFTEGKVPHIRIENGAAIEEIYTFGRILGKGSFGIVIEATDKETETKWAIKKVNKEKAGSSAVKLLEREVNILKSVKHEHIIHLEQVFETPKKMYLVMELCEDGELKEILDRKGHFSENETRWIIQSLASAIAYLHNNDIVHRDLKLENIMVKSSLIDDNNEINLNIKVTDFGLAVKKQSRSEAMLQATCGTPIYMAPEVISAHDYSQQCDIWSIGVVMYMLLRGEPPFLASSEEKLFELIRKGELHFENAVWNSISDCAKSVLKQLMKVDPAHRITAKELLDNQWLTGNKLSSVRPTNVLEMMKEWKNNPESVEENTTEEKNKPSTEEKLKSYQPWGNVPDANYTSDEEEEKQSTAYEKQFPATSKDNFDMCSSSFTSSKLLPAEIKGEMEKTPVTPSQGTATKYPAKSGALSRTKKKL
Chain of AURKC (human) (Q9UQB9 whole entry, looked up): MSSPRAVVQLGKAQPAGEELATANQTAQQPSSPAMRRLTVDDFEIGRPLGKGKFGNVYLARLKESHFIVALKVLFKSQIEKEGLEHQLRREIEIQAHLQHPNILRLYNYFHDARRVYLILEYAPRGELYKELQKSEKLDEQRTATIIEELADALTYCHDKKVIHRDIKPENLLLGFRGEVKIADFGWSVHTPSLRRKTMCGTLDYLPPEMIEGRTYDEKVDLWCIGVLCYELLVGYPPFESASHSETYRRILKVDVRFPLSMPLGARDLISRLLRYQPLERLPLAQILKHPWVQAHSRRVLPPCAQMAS
Chain of MAPK11 (human) (Q15759 whole entry, looked up): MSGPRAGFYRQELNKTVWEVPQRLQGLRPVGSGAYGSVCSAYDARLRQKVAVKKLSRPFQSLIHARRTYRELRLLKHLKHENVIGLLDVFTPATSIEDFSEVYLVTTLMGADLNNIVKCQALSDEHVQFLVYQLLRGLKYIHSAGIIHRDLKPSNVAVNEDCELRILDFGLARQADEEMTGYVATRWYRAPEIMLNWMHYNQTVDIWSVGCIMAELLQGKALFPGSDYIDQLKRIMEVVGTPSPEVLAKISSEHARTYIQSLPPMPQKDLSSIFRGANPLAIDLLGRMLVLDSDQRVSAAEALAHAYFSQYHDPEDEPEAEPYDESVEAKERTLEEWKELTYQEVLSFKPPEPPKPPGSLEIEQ
Chain of ACVR1B (human) (P36896 whole entry, looked up): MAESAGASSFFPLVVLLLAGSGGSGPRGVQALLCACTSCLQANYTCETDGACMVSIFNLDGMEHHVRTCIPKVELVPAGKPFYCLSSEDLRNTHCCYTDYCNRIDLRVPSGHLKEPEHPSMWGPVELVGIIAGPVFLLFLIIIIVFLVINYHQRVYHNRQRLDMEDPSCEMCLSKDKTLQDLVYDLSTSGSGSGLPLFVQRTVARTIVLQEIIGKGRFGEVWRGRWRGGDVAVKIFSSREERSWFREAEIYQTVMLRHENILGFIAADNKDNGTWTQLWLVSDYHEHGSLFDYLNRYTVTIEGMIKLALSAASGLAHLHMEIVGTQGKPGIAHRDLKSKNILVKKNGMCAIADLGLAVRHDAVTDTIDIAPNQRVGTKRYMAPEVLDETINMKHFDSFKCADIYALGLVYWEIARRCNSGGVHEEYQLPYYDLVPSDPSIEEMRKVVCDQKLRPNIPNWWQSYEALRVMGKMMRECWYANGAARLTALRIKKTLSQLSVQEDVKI
Chain of PTK2B (human) (Q14289 whole entry, looked up): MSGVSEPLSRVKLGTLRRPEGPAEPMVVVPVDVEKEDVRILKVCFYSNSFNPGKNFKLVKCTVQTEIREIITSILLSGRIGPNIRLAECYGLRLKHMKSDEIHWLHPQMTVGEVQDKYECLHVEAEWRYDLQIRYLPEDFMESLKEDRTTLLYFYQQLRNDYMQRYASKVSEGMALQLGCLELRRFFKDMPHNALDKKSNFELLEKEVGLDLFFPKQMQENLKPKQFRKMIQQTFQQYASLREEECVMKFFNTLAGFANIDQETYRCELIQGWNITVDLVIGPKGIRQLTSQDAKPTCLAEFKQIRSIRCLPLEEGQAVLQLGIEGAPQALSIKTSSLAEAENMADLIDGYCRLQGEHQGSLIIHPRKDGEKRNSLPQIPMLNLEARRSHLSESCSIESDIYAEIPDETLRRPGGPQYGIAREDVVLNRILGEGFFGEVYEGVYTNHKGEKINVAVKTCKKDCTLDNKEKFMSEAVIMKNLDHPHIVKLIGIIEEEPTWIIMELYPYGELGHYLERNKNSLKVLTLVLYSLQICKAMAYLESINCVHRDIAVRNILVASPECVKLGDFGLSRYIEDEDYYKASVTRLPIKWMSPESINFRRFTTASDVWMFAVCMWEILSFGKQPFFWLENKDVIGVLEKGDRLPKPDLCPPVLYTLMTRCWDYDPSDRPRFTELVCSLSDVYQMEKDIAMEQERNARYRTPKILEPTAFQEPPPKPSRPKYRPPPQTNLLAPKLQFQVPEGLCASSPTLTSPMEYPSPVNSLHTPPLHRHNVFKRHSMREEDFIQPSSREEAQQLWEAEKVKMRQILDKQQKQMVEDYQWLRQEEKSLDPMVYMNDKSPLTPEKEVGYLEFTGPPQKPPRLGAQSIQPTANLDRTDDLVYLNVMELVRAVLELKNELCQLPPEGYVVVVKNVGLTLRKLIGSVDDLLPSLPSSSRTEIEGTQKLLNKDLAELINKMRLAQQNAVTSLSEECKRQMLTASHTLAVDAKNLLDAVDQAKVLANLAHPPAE
Chain of PBK (human) (Q96KB5 whole entry, looked up): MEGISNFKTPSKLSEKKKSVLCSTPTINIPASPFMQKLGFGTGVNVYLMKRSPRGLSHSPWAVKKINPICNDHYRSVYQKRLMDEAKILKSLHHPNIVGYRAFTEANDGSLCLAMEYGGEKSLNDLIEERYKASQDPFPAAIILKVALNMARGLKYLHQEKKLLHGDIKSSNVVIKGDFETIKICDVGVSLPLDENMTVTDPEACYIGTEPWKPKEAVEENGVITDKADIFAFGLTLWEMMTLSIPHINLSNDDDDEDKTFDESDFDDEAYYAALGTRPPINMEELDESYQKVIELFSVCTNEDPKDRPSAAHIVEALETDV

Row | Compound | residual activity (EPHA4 (human)) | residual activity (PBK (human)) | residual activity (PAK6 (human)) | residual activity (CAMK2A (human)) | residual activity (DAPK1 (human)) | residual activity (CAMK2D (human)) | residual activity (INSR (human)) | residual activity (MAP4K2 (human)) | residual activity [1] | residual activity (ROCK1 (human)) | residual activity (MAP3K5 (human)) | residual activity (MAP3K8 (human)) | residual activity (LCK (human)) | residual activity (NEK11 (human)) | residual activity (MAPK8 (human)) | residual activity (BTK (human)) | residual activity (PTK2B (human)) | residual activity (STK33 (human)) | residual activity (SLK (human)) | residual activity (DYRK3 (human)) | further results
1 | O=S(=O)(c1cccc2cnccc12)N1CCCNCC1 | 98.5% | 100% | 87% | 99.9% | 79% | 98.5% | 95% | 45.7% | 81.6% | 60.2% | 88.7% | 91.8% | 101% | 114% | 89.7% | 96.5% | 90.6% | 90.3% | 95.8% | 89.1% | residual activity (SRPK2 (human)): 83.9%; residual activity (FER (human)): 103%; residual activity (MAP3K3 (human)): 89.3%; residual activity (PRKD3 (human)): 65.8%; residual activity (ACVR1B (human)): 100%; residual activity (STK10 (human)): 103%; residual activity (CSK (human)): 87.9%; residual activity (AXL (human)): 97.2%; residual activity (MAP3K14 (human)): 97.7%; residual activity (TAOK3 (human)): 97.3%; residual activity (CDK6 CCND1 (human)): 86.4%; residual activity (PRKD1 (human)): 65.1%; residual activity (CAMK1D (human)): 91.5%; residual activity (MAPK11 (human)): 91.9%; residual activity (AURKC (human)): 97.4%; residual activity (CSNK2A1 (human)): 94.9%; residual activity (PDGFRB (human)): 102%; residual activity (AKT3 (human)): 94.1%
2 | COc1ccc2c(c[n+](C)c3c4cc5c(cc4ccc23)OCO5)c1OC | 103% | 102% | 96.1% | 99.5% | 86.7% | 90.4% | 94.9% | 96.1% | 108% | 99.4% | 114% | 91.3% | 89% | 106% | 89.8% | 98.6% | 92.3% | 102% | 87.4% | 101% | residual activity (CDK2 CCNA2 (human)): 85.1%; residual activity (FER (human)): 89.8%; residual activity (MAP3K3 (human)): 101%; residual activity (PRKD3 (human)): 99.3%; residual activity (ACVR1B (human)): 110%; residual activity (STK10 (human)): 92.7%; residual activity (CSK (human)): 106%; residual activity (AXL (human)): 98%; residual activity (MAP3K14 (human)): 88.1%; residual activity (TAOK3 (human)): 96.1%; residual activity (CDK6 CCND1 (human)): 103%; residual activity (PRKD1 (human)): 100%; residual activity (CAMK1D (human)): 105%; residual activity (MAPK11 (human)): 91.6%; residual activity (AURKC (human)): 93.5%; residual activity (CSNK2A1 (human)): 83.3%; residual activity (PDGFRB (human)): 93.5%; residual activity (RPS6KA3 KD1 KD2 (human)): 94.6%; residual activity (AKT3 (human)): 103%
3 | COc1ccc(COc2ccc(Cc3cnc(N)nc3N)cc2OC)cc1 | 105% | 99.4% | 94.9% | 105% | 102% | 109% | 97% | 120% | 97.6% | 100% | 89% | 98.4% | 96.3% | 103% | 91.9% | 104% | 86.1% | 96.4% | 97.7% | 108% | residual activity (SRPK2 (human)): 87.4%; residual activity (FER (human)): 93.4%; residual activity (MAP3K3 (human)): 97.8%; residual activity (PRKD3 (human)): 97.1%; residual activity (ACVR1B (human)): 97.8%; residual activity (STK10 (human)): 100%; residual activity (AXL (human)): 96.4%; residual activity (MAP3K14 (human)): 81.8%; residual activity (TAOK3 (human)): 102%; residual activity (CDK6 CCND1 (human)): 101%; residual activity (PRKD1 (human)): 95.2%; residual activity (CAMK1D (human)): 93%; residual activity (MAPK11 (human)): 98.7%; residual activity (AURKC (human)): 97.5%; residual activity (CSNK2A1 (human)): 105%; residual activity (PDGFRB (human)): 98.2%; residual activity (RPS6KA3 KD1 KD2 (human)): 105%; residual activity (AKT3 (human)): 96.5%
